Values of other authors, collected in patent US20060198860A1, “Synergistic blends of monoterpenes for mountain pine beetle pheromones” (Phero Tech Inc., priority 2005, published 2006).
Where two headings read alike, the source gives them in different places.

How the values were obtained:
mountain pine beetles = settings: component alone
mountain pine beetle [1] = settings: for catch versus pheromones alone: five doses, less than 1.0 mg per day to over 6.0 g per day
mountain pine beetle [2] = settings: myrcene at approximately 100 mg per day
mountain pine beetle [3] = settings: myrcene from 18 mg per day to 150 mg per day; traps also baited with trans-verbenol and exo-brevicomin
mountain pine beetle [4] = settings: in one instance (of four Rocky Mountain locations); with trans-verbenol and exo-brevicomin

CC1=CCC2C(C1)C2(C)C (centres unmarked) [3-carene]
beetles caught (mountain pine beetles): one female | catches versus pheromones alone (mountain pine beetle [1]; dose of 600 mg per day): higher than to the pheromones alone

C=CC(=C)CCC=C(C)C [myrcene]
synergist relative to the foliage blend (mountain pine beetle [2]; females): over three times better | synergist relative to the foliage blend (mountain pine beetle [2]; males): over four times a better synergist | numbers of both sexes captured on raising the release rate (mountain pine beetle [3]): more than doubling | catches versus pheromones alone (mountain pine beetle [1]; doses of 0.9 and 6.4 g per day): significantly higher

CC1=CCC(=C(C)C)CC1 [terpinolene]
synergist, times better than myrcene (mountain pine beetle [4]): ~88 times | catch versus pheromones alone (mountain pine beetle [1]): no combination of terpinolene with trans-verbenol and exo-brevicomin that resulted in higher catches | response versus pheromones alone (mountain pine beetle [1]; highest dose (2.1 g per day)): significantly lowered

CC1=CCC2CC1C2(C)C (stereo not drawn) [α-pinene]
catch versus pheromones alone (mountain pine beetle [1]): at no dose was the catch significantly different

C=C1C=CC(C(C)C)CC1 (stereo not drawn) [β-phellandrene]
catch versus pheromones alone (mountain pine beetle [1]): at no dose was the catch significantly higher

C=C1CCC2CC1C2(C)C (stereo not drawn) [β-pinene]
catch versus pheromones alone (mountain pine beetle [1]): at no dose was the catch significantly different

CC1=CCC(C(C)C)=CC1 [γ-terpinene]
catches versus pheromone controls (mountain pine beetle [1]; doses of 51.7 mg per day and 1.1 g per day): significantly higher

trans-verbenol
beetles caught (mountain pine beetles): no beetles
